Test results published in PMC5397059, “Design, synthesis and structure-activity relationship study of wollamide B; a new potential anti TB agent” (PLoS ONE, 2017).
Values after ≈ are worked out from the molar mass of the structure shown. Like-named read-outs stand apart in the source and are kept apart here. Non-standard residues stand in square brackets, D forms with d. Residues, ends and D or L forms follow the SMILES beside them. *: point of attachment. NMeN = CN[C@@H](CC(N)=O)C(=O)O; NMeL = CN[C@@H](CC(C)C)C(=O)O; NMeV = CN[C@H](C(=O)O)C(C)C; dOrn = NCCC[C@@H](N)C(=O)O; tBu = CC(C)(C)*

Tests used:
[1] = Intrinsic clearance (CLint) assay, human liver microsomes; format: in vitro ADME; conditions: for CLint Human: human liver microsomes; for half-life at 0.5 µM: human, pooled human liver microsomes, pH 7.4, human liver microsomes, read-out: Microsomal t1/2 Human; for % LBF Human: liver blood flow; for CLpred Human: predicted metabolic clearance
Protocol: (§1) Pooled mouse and human liver microsomes are purchased from Xenotech. Microsomes (final protein concentration 0.5 mg/mL, MgCl2 (final concentration = 5 mM) and test compound (final substrate concentration = 0.5] M; final DMSO concentration = 0.5%) in 0.1 M phosphate buffer pH 7.4 are pre-incubated at 37°C prior to the addition of NADPH (final concentration = 1 mM) to initiate the reaction. The final incubation volume is 600 μL.
(§2) Control incubation is included for each compound tested where 0.1 M phosphate buffer pH 7.4 is added instead of NADPH (minus NADPH). One control compound is included with each species. All incubations are performed singularly for each test compound. Each compound is incubated for 45 minutes and samples (100 μL) of incubate are taken at 0, 5, 15, 30 and 45 min. The control (minus NADPH) is sampled at 30 min only. The reactions are stopped by the addition of sample to 200 μL Acetonitrile: Methanol 3:1 containing internal standard. The terminated samples are centrifuged at 2,500 rpm for 20 min at 4°C to precipitate the protein. Quantitative analysis: following protein precipitation, the samples were analyzed using specific LC-MS/MS conditions. Data analysis: from a plot of ln peak area ratio (compound peak area/internal standard peak area) against time, the gradient of the line was determined. Subsequently, half-life and intrinsic clearance were calculated using the equations below: Eliminationrateconstant(K)=(−gradient) Halflife(t1/2)(min)=0.693/K Cli(mL/min/gprotien)=V×0.693/t1/2 WhereV=Incubationvolume(mL/gmicrosomalprotien)

[2] = molecular target: human serum albumin (Homo sapiens, UniProt P02768); assay: Human serum albumin (HSA) binding assay; format: in vitro ADME; conditions: human serum albumin binding
Protocol: HSA binding assay was performed according to the method described by Valko K, et al. The basic principle of the measurements is the determination of gradient retention times of compounds on immobilized HSA column and converting these retention times to the appropriate property values using calibration. The peaks are detected and identified by UV. Calibration sets of compounds are measured before each run for which the HSA binding values are known. The retention times of the calibration set of compounds are plotted against these known values. The slope and the intercept of the obtained straight lines are used to calculate the HSA binding for the unknown compounds.

[3] = Artificial membrane permeability assay; format: in vitro ADME; conditions: PAMPA, pH 7.4; passive artificial membrane permeability; read-out: Permeability
Protocol: A 8% L-a-phosphatidylcholine (EPC) in 1% cholesterol decane solution and a 1.8% EPC in cholesterol decane solution were prepared. The lipid solution was then aliquoted into 4 mL capped vials, sealed with parafilm and stored in-20°Cfreezer. The lipid solution was then transferred from 4 mL vial into 96-well half area plate (130μL/well) for daily assay usage. An additional 50 mM phosphate buffer with 0.5% encapsin, pH at 7.4 was prepared. The assay was run by the Biomek FX and Biomek software. The assay procedure is written under the Biomek software. For one batch assay, it can test two 96-well sample plates with at least one standard on each sample plate. The total assay time was about 4 hours. 3.5 μL of lipid solution were added to the filler plate, shaken for 12 seconds, and 250 μL of buffer were added to donor side and 100 μL to the receiver side. The assay plate was shaken for 45 min before adding the compounds. The test compounds (2.5 μL) were added to the donor side. The assay was run as replicates: Assay plates1 and 2 tested the sample plate 1; assay plates 3 and 4 tested the sample plate 2. The assay plates were then incubated and shaken for 3 hours at room temperature.
The assay samples were transferred to the HPLC analysis plates and 100 μL of receiver solution were aspirated and transferred to the receiver for analysis. Similarly, another 100 μL from the donor solution were transferred to the donor analysis plate.
Compound concentration was measured by HPLC at different time-points and permeability was established as nm/sec.

[4] = Chemi-Luminescent Nitrogen Detection (CLND) kinetic solubility assay; format: physicochemical; conditions: phosphate buffered saline, pH 7.4; kinetic aqueous solubility by CLND; read-out: Solubility
Protocol: GSK in-house kinetic solubility assay: 5 μL of 10mM DMSO stock solution diluted to 100 uL with pH7.4 phosphate buffered saline, equilibrated for 1 hour at room temperature, filtered through Millipore Multiscreen HTS-PCF filter plates (MSSL BPC).
The filtrate is quantified by suitably calibrated flow injection CLND. The standard error of the CLND solubility determination is ±30 μM, the upper limit of the solubility is 500 μM when working from 10 mM DMSO stock solution.

[5] = Chrom logD assay; format: physicochemical; conditions: pH 7.4, read-out: Log D
Protocol: The Chromatographic Hydrophobicity Index (CHI) values were measured using a reversed phase HPLC column (50 x 2 mmx 3 μMGemini NX C18, Phenomenex, UK) with fast acetonitrile gradient at starting mobile phase of 100% pH = 7.4 buffer. CHI values are derived directly from the gradient retention times by using a calibration line obtained for standard compounds. The CHI value approximates to the volume % organic concentration when the compound elutes. CHI is linearly transformed into ChromlogD by the formula: ChromlogD=0.0857CHI−2.00
The average error of the assay is ±3 CHI unit or ±0.25 ChromlogD.

[6] = Intrinsic clearance (CLint) assay, mouse liver microsomes; format: in vitro ADME; conditions: for % LBF Mouse: liver blood flow; for CLint Mouse: mouse liver microsomes; for half-life at 0.5 µM: mouse, pooled mouse liver microsomes, pH 7.4, read-out: Microsomal t1/2 Mouse; for CLpred Mouse: predicted metabolic clearance
Protocol: as §1, §2

[7] = amide bond, 18-membered ring, HATU/HOBt/DIEA
[8] = reversed phase HPLC column (Gemini NX C18)

human serum albumin, sequence (P02768 25-609): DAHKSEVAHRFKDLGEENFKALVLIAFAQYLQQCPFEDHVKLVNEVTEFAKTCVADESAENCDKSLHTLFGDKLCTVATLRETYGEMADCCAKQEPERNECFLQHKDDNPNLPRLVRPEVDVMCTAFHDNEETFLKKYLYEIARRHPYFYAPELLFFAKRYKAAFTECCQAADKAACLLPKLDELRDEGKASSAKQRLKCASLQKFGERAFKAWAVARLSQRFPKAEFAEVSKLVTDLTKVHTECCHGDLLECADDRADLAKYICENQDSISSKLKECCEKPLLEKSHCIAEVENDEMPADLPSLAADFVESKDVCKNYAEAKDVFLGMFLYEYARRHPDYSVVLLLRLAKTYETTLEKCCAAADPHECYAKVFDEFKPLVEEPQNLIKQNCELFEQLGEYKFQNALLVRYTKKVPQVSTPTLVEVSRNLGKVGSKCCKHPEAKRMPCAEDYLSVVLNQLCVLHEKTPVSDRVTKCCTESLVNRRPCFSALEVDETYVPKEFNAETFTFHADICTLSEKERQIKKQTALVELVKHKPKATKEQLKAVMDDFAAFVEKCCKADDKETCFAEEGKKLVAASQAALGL

CC[C@H](C)[C@@H]1NC(=O)[C@@H](CC(C)C)NC(=O)[C@H](CC(C)C)NC(=O)[C@H](Cc2c[nH]c3ccccc23)NC(=O)[C@@H](CCCN)NC(=O)[C@H](CO)NC1=O [Compound 10c] (cyclo(IS[dOrn]WL[dL]))
CLint Human [1]: 9.77 mL/min/g tissue | half-life at 0.5 µM [1]: 5.63 min | % LBF Human [1]: 93.00% | CLpred Human [1]: 16.70 mL/min/kg | % HSA [2]: 86.47% | Papp at 3 h [3]: < 1 ×10⁻⁶ cm/s | solubility kinetic at 1 h [4]: ≥ 228 µg/mL | chromatographic logD [5, 8]: 2.16 | % LBF Mouse [6]: <16.3% | CLint Mouse [6]: <0.48 mL/min/g tissue | half-life at 0.5 µM [6]: > 139 min | CLpred Mouse [6]: <20.50 mL/min/kg

CC(C)C[C@H]1NC(=O)[C@H](CC(C)C)N(C)C(=O)[C@H](Cc2c[nH]c3ccccc23)NC(=O)[C@@H](CCCN)NC(=O)[C@H](CC(N)=O)NC(=O)[C@H](C(C)C)N(C)C1=O [Compound 24c] (cyclo(N[dOrn]W[NMeL][dL][NMeV]))
CLint Human [1]: 3.51 mL/min/g tissue | half-life at 0.5 µM [1]: 37.3 min | % LBF Human [1]: 82.70% | CLpred Human [1]: 14.90 mL/min/kg | % HSA [2]: 87.02% | Papp at 3 h [3]: < 1 ×10⁻⁶ cm/s | solubility kinetic at 1 h [4]: ≥ 217 µg/mL | chromatographic logD [5, 8]: 2.18 | % LBF Mouse [6]: 42.0% | CLint Mouse [6]: 1.79 mL/min/g tissue | half-life at 0.5 µM [6]: 15.7 min | CLpred Mouse [6]: 52.90 mL/min/kg

CC[C@H](C)[C@@H]1NC(=O)[C@@H](CC(C)C)NC(=O)[C@H](CC(C)C)NC(=O)[C@H](Cc2c[nH]c3ccccc23)NC(=O)[C@@H](CCCN)NC(=O)[C@H](COC(C)(C)C)NC1=O [Compound 11c] (cyclo(IS(tBu)[dOrn]WL[dL]))
CLint Human [1]: 3.33 mL/min/g tissue | half-life at 0.5 µM [1]: 16.5 min | % LBF Human [1]: 81.90% | CLpred Human [1]: 14.70 mL/min/kg | % HSA [2]: 92.68% | Papp at 3 h [3]: < 0.3 ×10⁻⁶ cm/s | solubility kinetic at 1 h [4]: 202 µg/mL (≈ 258 µM) | chromatographic logD [5, 8]: 3 | % LBF Mouse [6]: <16.3% | CLint Mouse [6]: <0.48 mL/min/g tissue | half-life at 0.5 µM [6]: > 139 min | CLpred Mouse [6]: <20.50 mL/min/kg

CC[C@H](C)[C@@H]1NC(=O)[C@@H](CC(C)C)NC(=O)[C@H](CC(C)C)NC(=O)[C@H](Cc2c[nH]c3ccccc23)NC(=O)[C@@H](CCCNC(=N)N)NC(=O)[C@H](CC(N)=O)NC1=O [Compound 13c] (cyclo(IN[dR]WL[dL]))
CLint Human [1]: 7.44 mL/min/g tissue | half-life at 0.5 µM [1]: 7.4 min | % LBF Human [1]: 91.01% | CLpred Human [1]: 16.38 mL/min/kg | % HSA [2]: 87.55% | Papp at 3 h [3]: 1.1 ×10⁻⁶ cm/s | solubility kinetic at 1 h [4]: ≥ 189 µg/mL | chromatographic logD [5]: 2.05 | % LBF Mouse [6]: 29.00% | CLint Mouse [6]: 1.01 mL/min/g tissue | half-life at 0.5 µM [6]: 63 min | CLpred Mouse [6]: 36.60 mL/min/kg

CC(C)C[C@@H]1NC(=O)[C@H](Cc2c[nH]c3ccccc23)NC(=O)[C@@H](CCCN)NC(=O)[C@H](CC(N)=O)NC(=O)[C@H](C(C)C)N(C)C(=O)[C@@H](CC(C)C)NC1=O [Compound 22c] (cyclo(L[dL][NMeV]N[dOrn]W))
CLint Human [1]: <0.40 mL/min/g tissue | half-life at 0.5 µM [1]: > 139 min | % LBF Human [1]: <35.08% | CLpred Human [1]: <6.35 mL/min/kg | % HSA [2]: 73.98% | Papp at 3 h [3]: < 1 ×10⁻⁶ cm/s | solubility kinetic at 1 h [4]: ≥ 153 µg/mL | chromatographic logD [5, 8]: 1.96 | % LBF Mouse [6]: <16.3% | CLint Mouse [6]: <0.48 mL/min/g tissue | half-life at 0.5 µM [6]: > 139 min | CLpred Mouse [6]: <20.50 mL/min/kg

COc1ccc(C[C@@H]2NC(=O)[C@@H](CCCN)NC(=O)[C@H](CC(N)=O)NC(=O)[C@H](C(C)C)NC(=O)[C@@H](CC(C)C)NC(=O)[C@H](CC(C)C)NC2=O)cc1 [Compound 15c] (cyclo(L[dL]VN[dOrn]Y(Me)))
CLint Human [1]: <0.40 mL/min/g tissue | half-life at 0.5 µM [1]: > 139 min | % LBF Human [1]: <35.08% | CLpred Human [1]: <6.35 mL/min/kg | % HSA [2]: 46.55% | Papp at 3 h [3]: < 1 ×10⁻⁶ cm/s | solubility kinetic at 1 h [4]: ≥ 189 µg/mL | chromatographic logD [5, 8]: 1.73 | % LBF Mouse [6]: 24.00% | CLint Mouse [6]: 0.78 mL/min/g tissue | half-life at 0.5 µM [6]: 85.5 min | CLpred Mouse [6]: 30.20 mL/min/kg

CC(C)C[C@H]1NC(=O)[C@H](CC(C)C)N(C)C(=O)[C@H](Cc2c[nH]c3ccccc23)NC(=O)[C@@H](CCCN)NC(=O)[C@H](CC(N)=O)N(C)C(=O)[C@H](C(C)C)NC1=O [Compound 23c] (cyclo([NMeL][dL]V[NMeN][dOrn]W))
CLint Human [1]: 3.19 mL/min/g tissue | half-life at 0.5 µM [1]: 17.2 min | % LBF Human [1]: 81.29% | CLpred Human [1]: 14.63 mL/min/kg | % HSA [2]: 82.21% | Papp at 3 h [3]: < 1 ×10⁻⁶ cm/s | solubility kinetic at 1 h [4]: ≥ 174 µg/mL | chromatographic logD [5, 8]: 2 | % LBF Mouse [6]: 30.00% | CLint Mouse [6]: 1.06 mL/min/g tissue | half-life at 0.5 µM [6]: 63 min | CLpred Mouse [6]: 37.80 mL/min/kg

CSCC[C@@H]1NC(=O)[C@@H](CC(C)C)NC(=O)[C@H](CC(C)C)NC(=O)[C@H](Cc2cn(C(=O)OC(C)(C)C)c3ccccc23)NC(=O)[C@@H](CCCNC(=O)OC(C)(C)C)NC(=O)[C@H](CC(=O)NC(c2ccccc2)(c2ccccc2)c2ccccc2)NC1=O [cyclo (D-Leu-Met-Asn(Trt)-D-Orn(Boc)-Trp(Boc)-Leu)]
ring closure, isolated yield ([7]; from H-dLeu-Met-Asn(Trt)-dOrn(Boc)-Trp(Boc)-Leu-OH): 40%

CC(C)C[C@@H]1NC(=O)[C@H](Cc2cn(C(=O)OC(C)(C)C)c3ccccc23)NC(=O)[C@@H](CCCNC(=O)OC(C)(C)C)NC(=O)[C@H](CC(=O)NC(c2ccccc2)(c2ccccc2)c2ccccc2)NC(=O)[C@H](C)NC(=O)[C@@H](CC(C)C)NC1=O [cyclo(Trp(Boc)-D-Orn(Boc)-Asn(Trt)-Ala-D-Leu-Leu)]
ring closure, isolated yield ([7]; from H-dLeu-Ala-Asn(Trt)-dOrn(Boc)-Trp(Boc)-Leu-OH): 56%

CC(C)C[C@@H]1NC(=O)[C@H](C)NC(=O)[C@@H](CCCNC(=O)OC(C)(C)C)NC(=O)[C@H](CC(=O)NC(c2ccccc2)(c2ccccc2)c2ccccc2)NC(=O)[C@H](C(C)C)NC(=O)[C@@H](CC(C)C)NC1=O [cyclo(Ala-D-Orn (Boc)-Asn(Trt)-Val-D-Leu-Leu)]
ring closure, isolated yield ([7]; from H-dLeu-Val-Asn(Trt)-dOrn(Boc)-Ala-Leu-OH): 43%
